Experimental data from US8007996B2, “Methods to identify protein arginine deiminase 4 inhibitors” (University of South Carolina, priority 2007, dated 2011).
“Also recorded” adds a separate entry of the source. Where two headings read alike, the source gives them in different places.

Experiments:
PAD4 [1] = target: T1, PAD4 (Homo sapiens, UniProt Q9UM07); assay: Standard PAD4 assay (citrulline formation from BAEE), IC50 studies; format: biochemical
T1 construct: made in house
Excerpt: Reactions were quenched by flash freezing in liquid N2. The amount of Cit produced was then quantified according to methods known in the art. […] Inhibition Studies.

PAD4 [2] = target: T1, PAD4; assay: ABPP-based inhibitor screen: competition with RFA for labelling of PAD4, gel fluorescence; format: binding; conditions: compound 2.5 mM, RFA 10 μM, PAD4 2 μM, 30 min at 37° C.
Description: Very generally, potential inhibitor compounds are incubated individually with PAD4 in the presence of RFA for 30 min at 37° C.; at which point the reactions are quenched with SDS-PAGE loading dye and the mixtures are run on an SDS-PAGE gel. The amount of fluorescent PAD4 can then be quantified using a molecular imaging system. PAD4 inhibitors are readily identified by a decrease in fluorescence intensity.
RFA (10 μM final) and a particular compound from the library (2.5 mM final) were pre-incubated in Screening Buffer (500 μM TCEP, 10 mM CaCl2, 100 mM HEPES 7.6, 50 mM NaCl) for 10 min at 37° C. PAD4 (2 μM final) was then added to this mixture and incubated for 30 min at 37° C. The reaction was quenched with 6×SDS-PAGE Dye, incubated at 95° C. for 10 min, and then loaded onto a 12% SDS-PAGE gel. After electrophoresis, the gel was placed in destaining buffer (10% glacial acetic acid, 45% methanol, 45% ddH2O) until the fluorescence was measured using a fluorescence based molecular imaging station (Kodak Image Station 2000MM; excitation at 535 nm, emission at 600 nm). The protein gel was then stained and destained to ensure equal protein loading. A sample without a potential inhibitor was used as a control.

PAD4 [3] = target: T1, PAD4; assay: Inhibition studies: kinetic analysis of PAD4 activity versus BAEE concentration; format: biochemical; conditions: for Ki: BAEE 0-20 mM, 0.2 μM PAD4; for kinetic mechanism of PAD4 inhibition: Lineweaver-Burk plots
Description: PAD4 activity was measured as a function of substrate concentration in the absence and presence of increasing concentrations of each inhibitor.
Briefly, the compounds were incubated in Reaction Buffer containing various concentrations of BAEE (0-20 mM) for 10 minutes at 37° C. PAD4 (0.2 μM) was then added to initiate the reaction and allowed to proceed for 6 additional minutes. Reactions were then quenched by flash freezing in liquid N2 and the amount of Cit produced was quantified.
[formula] using GraFit version 5.0.11.

PAD4 [4] = target: T1, PAD4; assay: as above; format: biochemical; conditions: product formation linear with respect to time
[5] = 1 mM BAEE, 0.2 μM PAD4, 15 min pre-incubation at 37° C.

T1 sequence (Q9UM07 whole entry): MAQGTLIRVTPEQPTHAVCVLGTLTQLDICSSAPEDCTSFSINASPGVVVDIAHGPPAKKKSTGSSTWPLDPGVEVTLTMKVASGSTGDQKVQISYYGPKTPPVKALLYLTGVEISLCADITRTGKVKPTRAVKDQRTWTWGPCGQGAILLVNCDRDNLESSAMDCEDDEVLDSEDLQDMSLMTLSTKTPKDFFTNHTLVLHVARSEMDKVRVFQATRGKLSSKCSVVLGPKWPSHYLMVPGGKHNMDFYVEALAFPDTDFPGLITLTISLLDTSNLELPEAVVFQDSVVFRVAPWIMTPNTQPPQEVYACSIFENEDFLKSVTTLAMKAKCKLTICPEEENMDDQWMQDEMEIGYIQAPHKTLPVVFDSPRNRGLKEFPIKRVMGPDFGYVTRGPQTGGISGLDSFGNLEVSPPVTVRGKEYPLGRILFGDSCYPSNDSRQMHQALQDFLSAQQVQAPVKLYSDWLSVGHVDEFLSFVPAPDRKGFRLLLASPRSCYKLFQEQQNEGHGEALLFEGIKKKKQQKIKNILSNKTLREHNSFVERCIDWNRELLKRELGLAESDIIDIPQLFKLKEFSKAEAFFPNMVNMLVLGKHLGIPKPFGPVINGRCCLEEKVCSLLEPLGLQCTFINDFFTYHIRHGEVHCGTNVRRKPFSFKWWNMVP

Compound: Nc1ccc(S(=O)(=O)Nc2ccccn2)cc1 [Sulfapyridine]
- IC50 (PAD4 [1]; [5]): > 10000 µM
- decrease in fluorescence intensity of PAD4 (PAD4 [2]): little to no decrease

Compound: Sulfamethox-azole
- IC50 (PAD4 [1]; [5]): > 10000 µM
- decrease in fluorescence intensity of PAD4 (PAD4 [2]): little to no decrease

Compound: Leflunomide
- IC50 (PAD4 [1]; [5]): 2400 ± 800 µM
- decrease in fluorescence intensity of PAD4 (PAD4 [2]): Intermediate effects

Compound: CN(C)[C@H]1C(O)=C(C(N)=O)C(=O)C2(O)C(O)=C3C(=O)c4c(O)cccc4C(C)(O)C3CC12 (stereo partly drawn) [Tetracycline]
- IC50 (PAD4 [1]; [5]): 100 ± 10 µM

Compound: Cn1cnc([N+](=O)[O-])c1Sc1ncnc2nc[nH]c12 [Azathioprine]
- IC50 (PAD4 [1]; [5]): > 7500 µM

Compound: CCCC1CC(C(=O)NC(C(C)Cl)C2OC(SC)C(O)C(O)C2O)N(C)C1 (stereo not drawn) [Clindamycin]
- decrease in fluorescence intensity of PAD4 (PAD4 [2]): Intermediate effects

Compound: Azithromycin
- IC50 (PAD4 [1]; [5]): > 10000 µM
- decrease in fluorescence intensity of PAD4 (PAD4 [2]): little to no decrease

Compound: COc1cc(Cc2cnc(N)nc2N)cc(OC)c1OC [Trimethoprim]
- IC50 (PAD4 [1]; [5]): 7500 ± 200 µM
- decrease in fluorescence intensity of PAD4 (PAD4 [2]): little to no decrease

Compound: CN(Cc1cnc2nc(N)nc(N)c2n1)c1ccc(C(=O)N[C@@H](CCC(=O)O)C(=O)O)cc1 [Methotrexate]
- IC50 (PAD4 [1]; [5]): > 10000 µM
- decrease in fluorescence intensity of PAD4 (PAD4 [2]): Intermediate effects

Compound: CN(C)c1ccc(O)c2c1C[C@H]1C[C@H]3[C@H](N(C)C)C(O)=C(C(N)=O)C(=O)[C@@]3(O)C(O)=C1C2=O [Minocycline]
- IC50 (PAD4 [1]; [5]): 620 µM
- IC50 (PAD4 [1]; standard assay): 620 µM
- Ki (PAD4 [3]; read-out: Kii): 630 ± 150 µM
- Ki (PAD4 [3]; read-out: Kis): 180 ± 60 µM
- kinetic mechanism of PAD4 inhibition (PAD4 [3]): mixed type inhibitor; also recorded: mixed inhibitors
- decrease in fluorescence intensity of PAD4 (PAD4 [2]): strong decrease
- reversibility of PAD4 inhibition (PAD4 [4]): reversible

Compound: [H]/N=C(/N)N[C@H]1[C@H](O)[C@@H](O)[C@H](O[C@@H]2O[C@@H](C)[C@](O)(C=O)[C@H]2O[C@@H]2O[C@@H](CO)[C@H](O)[C@@H](O)[C@@H]2NC)[C@@H](N/C(N)=N\[H])[C@@H]1O [Streptomycin]
- deimination of the compound by PAD4 (substrate) (PAD4 [1]): not deiminated
- kinetic mechanism of PAD4 inhibition (PAD4 [3]): competitive inhibitor
- decrease in fluorescence intensity of PAD4 (PAD4 [2]): strong decrease
- reversibility of PAD4 inhibition (PAD4 [4]): reversible

Compound: CN(C)[C@H]1C(O)=C(C(N)=O)C(=O)C2(O)C(O)=C3C(=O)c4c(O)ccc(Cl)c4C(C)(O)C3CC12 (stereo partly drawn) [Chlortetracycline]
- kinetic mechanism of PAD4 inhibition (PAD4 [3]): mixed inhibition; also recorded: mixed inhibitors
- reversibility of PAD4 inhibition (PAD4 [4]): reversible

Compound: Nc1ccc(O)c(C(=O)O)c1 [5-Amino-salicylic Acid]
- IC50 (PAD4 [1]; [5]): > 10000 µM
- decrease in fluorescence intensity of PAD4 (PAD4 [2]): little to no decrease
